Activity calls are given as the source filed them.
Columns and labels:
[1] = molecular target: NADPH oxidase 1 (Homo sapiens, UniProt Q9Y5S8); assay: Late-stage luminescence-based cell-based dose response assay to identify inhibitors of NADPH oxidase 1 (NOX1): Synthesized analogs 2.; type: functional
[2] = molecular target: T1, Low molecular weight phosphotyrosine protein phosphatase (Homo sapiens, UniProt P24666); assay: inhibition of human LMPTP enzyme activity – biochemical, absorbance, pNPP substrate, LMPTP-A isoform, set 2, orthogonal assay, dose response (AID 743308); type: functional
T1 sequence (P24666 whole entry): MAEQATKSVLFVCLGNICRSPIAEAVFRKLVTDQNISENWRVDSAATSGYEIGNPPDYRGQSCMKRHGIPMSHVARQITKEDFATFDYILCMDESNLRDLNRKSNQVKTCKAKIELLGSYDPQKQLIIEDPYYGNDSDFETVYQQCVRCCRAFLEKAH

[3] = molecular target: T1, Low molecular weight phosphotyrosine protein phosphatase; assay: inhibition of LMPTP-A enzymatic activity – biochemical, OMFP substrate, fluorescence intensity, set 2, dose response (AID 743307); type: functional
[4] = test system: HEK293; assay: cells; type: functional, cell-based; conditions: Homo sapiens
[5] = molecular target: Nonstructural protein 1 (Influenza A virus, UniProt Q194T2); type: functional, Influenza A virus (A/California/07/2009(H1N1))
Sequence of Nonstructural protein 1 (Q194T2 whole entry): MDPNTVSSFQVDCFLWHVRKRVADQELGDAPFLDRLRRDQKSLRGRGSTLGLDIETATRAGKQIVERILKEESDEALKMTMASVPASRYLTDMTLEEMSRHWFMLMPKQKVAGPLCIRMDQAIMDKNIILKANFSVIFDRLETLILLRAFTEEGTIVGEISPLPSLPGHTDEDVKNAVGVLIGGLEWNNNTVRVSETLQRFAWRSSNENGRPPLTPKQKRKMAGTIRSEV

[6] = molecular target: T2, Replicative DNA helicase DnaB (Mycobacterium tuberculosis, UniProt P9WMR3); assay: DnaB intein splicing inhibitors, dose response, biochemical, cell-free fluorescence (AID 449749); type: functional
T2 sequence (P9WMR3 whole entry): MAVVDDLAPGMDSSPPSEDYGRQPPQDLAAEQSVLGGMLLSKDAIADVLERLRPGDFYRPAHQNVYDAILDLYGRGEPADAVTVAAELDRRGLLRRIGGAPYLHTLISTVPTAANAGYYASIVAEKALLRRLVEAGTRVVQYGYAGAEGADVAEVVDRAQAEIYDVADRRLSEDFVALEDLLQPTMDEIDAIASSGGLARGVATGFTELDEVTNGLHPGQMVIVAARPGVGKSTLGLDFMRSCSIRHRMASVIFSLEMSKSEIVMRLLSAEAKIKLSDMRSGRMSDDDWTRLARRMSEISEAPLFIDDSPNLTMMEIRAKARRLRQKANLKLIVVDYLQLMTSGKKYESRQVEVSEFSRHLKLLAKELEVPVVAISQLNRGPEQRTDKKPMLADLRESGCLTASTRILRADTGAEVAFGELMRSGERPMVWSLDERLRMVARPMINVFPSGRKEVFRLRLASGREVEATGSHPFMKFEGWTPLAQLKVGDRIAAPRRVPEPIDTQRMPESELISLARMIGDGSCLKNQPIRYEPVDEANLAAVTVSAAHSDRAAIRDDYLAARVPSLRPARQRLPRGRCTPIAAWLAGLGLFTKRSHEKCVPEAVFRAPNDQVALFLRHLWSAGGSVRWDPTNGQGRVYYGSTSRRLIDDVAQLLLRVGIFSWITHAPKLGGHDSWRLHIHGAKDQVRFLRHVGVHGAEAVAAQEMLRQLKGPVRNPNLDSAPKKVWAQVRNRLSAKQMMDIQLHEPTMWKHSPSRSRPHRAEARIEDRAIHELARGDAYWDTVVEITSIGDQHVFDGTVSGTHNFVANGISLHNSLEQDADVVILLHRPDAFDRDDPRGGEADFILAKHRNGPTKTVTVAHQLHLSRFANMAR

[7] = viability loss in Vero cells – cytotoxicity control for Vif-APOBEC3G degradation inhibitor project, dose response (AID 1117358); type: functional; conditions: Vero
[8] = test system: HEK293; assay: cells; type: functional, cell-based; conditions: Homo sapiens; remark: listed apart in the source
[9] = molecular target: T3, Protein RecA (Mycobacterium tuberculosis, UniProt P9WHJ3); assay: Fluorescence Cell-Free Homogeneous Dose Retest to Identify Inhibitors of RecA-Intein Splicing Activity. [Related pubchem assays (depositor defined):AID2097, AID2223, AID489010, AID492950]; type: functional
T3 sequence (P9WHJ3 whole entry): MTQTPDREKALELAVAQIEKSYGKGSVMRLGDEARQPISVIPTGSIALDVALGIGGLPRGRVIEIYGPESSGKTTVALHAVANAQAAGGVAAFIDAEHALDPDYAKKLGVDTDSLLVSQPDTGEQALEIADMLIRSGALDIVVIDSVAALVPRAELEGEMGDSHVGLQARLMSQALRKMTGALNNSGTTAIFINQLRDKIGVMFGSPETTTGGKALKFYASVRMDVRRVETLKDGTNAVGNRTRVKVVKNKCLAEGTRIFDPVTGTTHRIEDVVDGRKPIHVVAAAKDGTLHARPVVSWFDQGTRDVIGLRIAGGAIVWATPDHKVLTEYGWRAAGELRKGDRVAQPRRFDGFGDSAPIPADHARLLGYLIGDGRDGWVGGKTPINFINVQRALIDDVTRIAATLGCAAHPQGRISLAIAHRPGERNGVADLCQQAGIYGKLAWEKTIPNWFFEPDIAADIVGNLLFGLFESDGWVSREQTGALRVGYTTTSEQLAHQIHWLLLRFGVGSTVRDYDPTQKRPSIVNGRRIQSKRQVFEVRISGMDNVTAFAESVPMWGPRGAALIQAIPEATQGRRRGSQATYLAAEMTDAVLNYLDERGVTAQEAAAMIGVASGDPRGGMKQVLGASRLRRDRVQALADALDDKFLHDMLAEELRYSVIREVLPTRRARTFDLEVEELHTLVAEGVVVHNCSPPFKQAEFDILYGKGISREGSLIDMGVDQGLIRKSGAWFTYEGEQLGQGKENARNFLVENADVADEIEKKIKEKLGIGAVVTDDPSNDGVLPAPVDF

[10] = test system: HEK293; assay: inhibition of NOD1-driven NF-kB reporter – cell-based, luminescence, uHTS, primary screen (AID 1578); type: functional; conditions: Homo sapiens
[11] = viability of HCT116 lacking mutant beta-catenin – cell-based, human colon tumor, dose response (AID 1045); type: functional;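 further: HCT116 colon tumor cells with beta catenin knocked out; cells exposed to compound for 60 hours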
[12] = molecular target: Nucleotide-binding oligomerization domain-containing protein 2 (Homo sapiens, UniProt Q9HC29); assay: inhibition of NOD2-driven NF-kB reporter – cell-based, luminescence, uHTS, HEK293 (AID 1566); type: functional
Sequence of Nucleotide-binding oligomerization domain-containing protein 2 (Q9HC29 whole entry, the tested form may be a part): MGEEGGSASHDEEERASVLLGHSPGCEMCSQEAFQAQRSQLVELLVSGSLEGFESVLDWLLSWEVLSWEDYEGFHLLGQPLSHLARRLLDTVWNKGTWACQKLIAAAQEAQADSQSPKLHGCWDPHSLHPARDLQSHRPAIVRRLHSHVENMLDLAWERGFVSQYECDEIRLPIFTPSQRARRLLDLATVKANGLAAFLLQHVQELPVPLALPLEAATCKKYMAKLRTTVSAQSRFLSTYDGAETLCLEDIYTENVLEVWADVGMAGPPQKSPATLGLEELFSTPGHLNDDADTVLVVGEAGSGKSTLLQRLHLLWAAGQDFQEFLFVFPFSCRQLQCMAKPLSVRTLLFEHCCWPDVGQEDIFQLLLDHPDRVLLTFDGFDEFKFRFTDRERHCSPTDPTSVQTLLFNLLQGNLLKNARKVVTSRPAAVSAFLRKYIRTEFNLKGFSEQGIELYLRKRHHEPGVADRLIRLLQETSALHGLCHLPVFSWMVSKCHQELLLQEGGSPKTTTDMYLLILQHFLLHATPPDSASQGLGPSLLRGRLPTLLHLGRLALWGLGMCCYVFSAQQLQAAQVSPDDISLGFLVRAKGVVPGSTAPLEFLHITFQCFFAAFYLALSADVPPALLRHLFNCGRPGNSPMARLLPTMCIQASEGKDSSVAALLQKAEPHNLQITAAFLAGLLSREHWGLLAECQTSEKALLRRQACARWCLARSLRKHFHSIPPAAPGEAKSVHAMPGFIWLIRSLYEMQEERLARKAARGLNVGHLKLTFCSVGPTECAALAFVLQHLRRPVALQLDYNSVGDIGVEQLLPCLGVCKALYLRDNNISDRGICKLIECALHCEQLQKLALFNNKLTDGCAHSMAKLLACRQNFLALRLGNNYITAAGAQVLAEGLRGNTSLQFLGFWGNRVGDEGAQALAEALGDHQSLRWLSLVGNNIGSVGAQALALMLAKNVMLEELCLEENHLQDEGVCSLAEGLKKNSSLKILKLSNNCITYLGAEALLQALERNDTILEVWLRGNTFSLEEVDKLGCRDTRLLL

[13] = test system: INS1; assay: INS-1E survival protection against cytokine death – cell-based, luminescence, retest, dose response (AID 449756); type: functional; conditions: Rattus norvegicus;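 further: cell death triggered by IL-1 beta plus TNF-alpha plus IFN-gamma mixture; protective hits raise ATP signal compared with cytokine alone wells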
[14] = Intein inhibitors as potential Tuberculosis drugs, a cytotoxicity screen. [Related pubchem assays (depositor defined):AID2221, AID2223, AID434968, AID435010, AID449749, AID449750, AID489010]; type: functional
[15] = test system: HEK293; assay: NOD2 signaling inhibitors in MDP-stimulated cells, cell-based, uHTS, luminescence (AID 2001); type: functional; conditions: Homo sapiens
[16] = test system: HEK293; assay: cells; type: functional, cell-based; conditions: Homo sapiens; remark: listed apart in the source
[17] = viability of PTEN-deleted HCT116 cells – cell-based, HCT116 PTEN knockout, dose response (AID 1047); type: functional;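 further: HCT116 colon tumor cells with PTEN knocked out; cells exposed to compound for 60 hours before readout; potency for loss of cell viability measured by luminescence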
[18] = molecular target: T4, Dual specificity protein phosphatase 6 (Rattus norvegicus, UniProt Q64346); assay: inhibition of rat DUSP6 enzyme activity – biochemical, in vitro, primary screen (AID 425)
T4 sequence (Q64346 whole entry): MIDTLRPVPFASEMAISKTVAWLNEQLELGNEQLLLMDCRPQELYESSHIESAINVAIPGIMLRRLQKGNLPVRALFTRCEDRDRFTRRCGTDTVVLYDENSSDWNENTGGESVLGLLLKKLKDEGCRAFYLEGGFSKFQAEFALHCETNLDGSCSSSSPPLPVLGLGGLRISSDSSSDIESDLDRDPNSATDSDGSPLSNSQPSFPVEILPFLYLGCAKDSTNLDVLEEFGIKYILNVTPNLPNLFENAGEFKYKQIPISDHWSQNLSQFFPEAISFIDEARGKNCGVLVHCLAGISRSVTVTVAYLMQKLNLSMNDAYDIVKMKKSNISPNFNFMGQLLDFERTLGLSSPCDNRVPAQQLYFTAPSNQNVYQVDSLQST

[19] = molecular target: T5, Bcl-2-related protein A1 (Mus musculus, UniProt Q07440); assay: displacement of Bid BH3 peptide from Bfl-1 – biochemical, fluorescence polarization, FITC-Bid, mouse, primary screen (AID 432)
T5 sequence (Q07440 whole entry): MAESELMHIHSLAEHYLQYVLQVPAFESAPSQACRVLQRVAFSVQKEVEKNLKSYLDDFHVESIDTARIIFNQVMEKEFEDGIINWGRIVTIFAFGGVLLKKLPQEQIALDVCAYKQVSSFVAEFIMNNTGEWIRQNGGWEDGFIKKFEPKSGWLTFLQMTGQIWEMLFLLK

[20] = molecular target: T5, Bcl-2-related protein A1; assay: small-molecule antagonists of Bfl-1/BH3 interaction – biochemical, TR-FRET, mouse Bfl-1, confirmation (AID 621);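 further: TR-FRET binding of GST-Bfl-1 to FITC-labelled Bid peptide via terbium antibody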
[21] = viability loss in CEM21 cells – cell-based, CellTiter-Glo luminescence, cherry-picked, cytotoxicity control for viral fusion inhibitor project, dose response (AID 652042); type: functional;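 further: potency for signal decrease meaning cytotoxicity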
[22] = cells; type: functional, cell-based
[23] = molecular target: T6, Mannose-6-phosphate isomerase (Homo sapiens, UniProt P34949); assay: MPI inhibition at elevated mannose 6-phosphate – biochemical, fluorescence intensity, high mannose 6-phosphate, primary screen (AID 1220)
T6 sequence (P34949 whole entry): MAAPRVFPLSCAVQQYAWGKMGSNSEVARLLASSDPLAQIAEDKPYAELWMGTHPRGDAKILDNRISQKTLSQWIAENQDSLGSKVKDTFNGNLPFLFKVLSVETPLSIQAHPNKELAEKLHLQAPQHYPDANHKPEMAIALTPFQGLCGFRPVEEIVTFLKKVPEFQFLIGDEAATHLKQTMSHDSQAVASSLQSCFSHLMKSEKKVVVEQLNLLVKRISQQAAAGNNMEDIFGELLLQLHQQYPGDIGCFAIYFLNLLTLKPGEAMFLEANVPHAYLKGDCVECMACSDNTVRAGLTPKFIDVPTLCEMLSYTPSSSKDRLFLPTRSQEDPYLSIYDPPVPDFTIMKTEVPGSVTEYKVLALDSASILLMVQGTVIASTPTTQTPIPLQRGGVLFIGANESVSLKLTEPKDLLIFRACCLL

[24] = cells; type: functional, cell-based; remark: listed apart in the source
[25] = HIV-1 AD8 envelope cell-cell fusion blockers – cherry-pick, dose response (AID 652062); type: functional, cell-based;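 further: luciferase signal from cell-cell fusion driven by HIV-1 clade B AD8 Env; potency is for inhibitors of fusion seen as a drop in luminescence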
[26] = molecular target: T7, High affinity choline transporter 1 (Homo sapiens, UniProt Q9GZV3); assay: human choline transporter blockers, potency – cell-based, 5-point CRC, membrane potential dye, dose response (AID 504840); type: functional
T7 sequence (Q9GZV3 whole entry): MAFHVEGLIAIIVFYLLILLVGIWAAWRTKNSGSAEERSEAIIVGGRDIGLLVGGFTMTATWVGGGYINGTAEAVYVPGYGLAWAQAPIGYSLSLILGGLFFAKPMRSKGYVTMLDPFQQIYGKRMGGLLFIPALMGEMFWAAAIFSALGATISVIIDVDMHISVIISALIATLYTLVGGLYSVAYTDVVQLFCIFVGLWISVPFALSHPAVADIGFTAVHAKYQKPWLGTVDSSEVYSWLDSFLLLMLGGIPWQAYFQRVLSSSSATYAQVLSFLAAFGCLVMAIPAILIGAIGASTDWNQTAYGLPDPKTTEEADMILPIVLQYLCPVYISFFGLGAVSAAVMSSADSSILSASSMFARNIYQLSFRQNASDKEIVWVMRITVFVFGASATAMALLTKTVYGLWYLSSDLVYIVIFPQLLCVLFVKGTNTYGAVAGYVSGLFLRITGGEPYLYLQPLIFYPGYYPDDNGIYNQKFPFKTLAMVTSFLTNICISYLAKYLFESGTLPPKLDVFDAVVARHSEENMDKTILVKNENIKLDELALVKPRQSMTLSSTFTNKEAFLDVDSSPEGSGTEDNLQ

[27] = test system: Danio rerio; assay: In Vivo Angiogenesis Dose-Response Confirmation. [Related pubchem assays: 732 (Assay preceding this confirmatory assay.)]; type: functional, organism-based
[28] = molecular target: Solute carrier family 12 member 2/member 5 (Homo sapiens, UniProt P55011+Q9H2X9); assay: KCC2 and NKCC1 inhibition by rubidium flux, cell-based, NKCC1 counter-screen (AID 1734); type: functional, HEK293

Sequence of NADPH oxidase 1 (Q9Y5S8 whole entry, canonical isoform): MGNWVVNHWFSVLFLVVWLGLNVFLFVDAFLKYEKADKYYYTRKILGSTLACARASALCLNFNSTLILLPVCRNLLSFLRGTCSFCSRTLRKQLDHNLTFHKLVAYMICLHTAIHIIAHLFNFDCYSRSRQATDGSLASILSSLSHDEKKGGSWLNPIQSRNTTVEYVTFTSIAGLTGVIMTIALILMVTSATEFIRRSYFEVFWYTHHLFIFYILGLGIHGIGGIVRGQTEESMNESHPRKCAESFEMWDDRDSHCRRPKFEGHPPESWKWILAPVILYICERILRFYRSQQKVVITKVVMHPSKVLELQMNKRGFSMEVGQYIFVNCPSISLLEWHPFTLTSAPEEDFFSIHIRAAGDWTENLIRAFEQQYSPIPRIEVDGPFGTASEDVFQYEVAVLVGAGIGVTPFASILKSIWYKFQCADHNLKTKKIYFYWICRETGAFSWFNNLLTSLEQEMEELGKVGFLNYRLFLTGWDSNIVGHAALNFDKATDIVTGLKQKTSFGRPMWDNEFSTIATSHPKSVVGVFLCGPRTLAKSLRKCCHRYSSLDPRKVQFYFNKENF

## O=C(Nc1c(F)cccc1F)N1c2ccccc2Sc2ccccc21
[1]
  IC50: 0.636 µM (active)

## CC1CCN(c2nc(-c3ccccc3)nc3ccccc23)CC1
[2]
  IC50: > 80 µM (inactive)
[3]
  IC50: > 80 µM (inactive)

## CN(C1=C(NC(=O)c2ccc(Cl)cc2)C(=O)c2ccccc2C1=O)c1ccccc1
[4]
  IC50: > 20 µM (inactive)
[5]
  IC50: 7.27 µM (active)
[6]
  AC50: 3.94 µM (active)
[7]
  CC50: > 40 µM (active)
[8]
  IC50: 5.15 µM (active)
[9]
  EC50: 1.66 µM (active)
[10]
  EC50: > 20 µM (inactive)
[11]
  EC50: 8.39 µM (active)
[12]
  EC50: 11.4 µM (active)
[13]
  AC50: 3.01 µM (active)
[14]
  CC50: 20.1 µM (active)
[15]
  IC50: 8.31 µM (active)
[16]
  IC50: 9.67 µM (active)
[17]
  EC50: 7.51 µM (active)

## N#Cc1c(N)sc(=S)c2c1CCN(Cc1ccccc1)C2
[18]
  IC50: 10.8 µM (active)
[19]
  IC50: > 100 µM (not active)
[20]
  IC50: > 100 µM (not active)

## COc1ccccc1N1CCN(Cc2ccc(O)c3ncccc23)CC1
[21]
  AC50: 3.39 µM (active)
[5]
  IC50: 5.46 µM (active)
[22]
  EC50: > 350 µM (not active)
[23]
  IC50: 19.2 µM (active)
[24]
  EC50: 12.1 µM (active)
[25]
  AC50: 29.6 µM (active)
[11]
  EC50: 1.95 µM (active)
[13]
  AC50: 2.27 µM (active)
[17]
  EC50: 2.25 µM (active)

## C[N+](C)(C)CCOC(=O)CBr [E1001]
[26]
  IC50: 14.1 µM (active)
[27]
  IC50: 31.6 µM (not active)

## O=S(=O)(NCc1ccccc1)c1ccc(Cl)c(S(=O)(=O)NCc2ccccc2)c1
[28]
  IC50: 9.1 µM (active)
